Patent publication US20150133467A1, “SCREENING METHOD, PROTEIN INSTABILITY AND/OR STABILITY INDUCERS, AND PROTEIN ACTIVITY ASSESSMENT” (KYOTO UNIVERSITY, priority 2012, published 2015)

Tests used:
[1] = test system: EGFP-TAU protein; assay: Screening with mCherry-2A-EGFP-TAU assay cells, Western blot analysis; format: cell-based, human
Description: An assay cell having the simultaneous expression system of EGFP-fused TAU and mCherry (mCherry-2A-EGFP-TAU) as shown in the model diagram of FIG. 5 was produced. Specifically, the process was as follows. EGFP was fused with TAU (EGFP-TAU), and further, it was connected in-frame by using 2A peptide and mCherry gene that codes a red fluorescent protein (mCherry-2A-EGFP-TAU). The 2A peptide is an amino acid sequence enabling a bicistronic gene expression. Thereby, mCherry-2A-EGFP-TAU is translated simultaneously from the top of a single mRNA. A vector expressing the gene (mCherry-2A-EGFP-TAU) was produced in the following manner.

[2] = molecular target: T1, FLAGx3-DYRK1A protein (Homo sapiens, UniProt Q13627); assay: Screening with FLAGx3-DYRK1A-2A-HAx3-EGFP assay cells, Western blotting; format: cell-based; settings: Western blot; for amount of intracellular DYRK1A protein: concentration of 4 μm, FIG. 8; for amount of FLAGx3-DYRK1A (FLAG-DYRK1A) protein within the cells: FIGS. 9-12, constant concentration not stated
T1 construct: 2A peptide (what is left of it after self-cleavage) (C); expressed in transfected cells
Procedure: Cultured cells with expressed FLAGx3-DYRK1A-2A-HAx3-EGFP (assay cells) were cultured on a plate, and test compounds of a constant concentration were added to the culture solution for a further cultivation. After the cultivation, the amounts of FLAGx3-DYRK1A, HAx3-EGFP, and GAPDH were quantitatively analyzed by a Western blotting method, and the ratio was analyzed.
After the cultivation, the amounts of FLAGx3-DYRK1A, HAx3-EGFP, and GAPDH were quantitatively analyzed by a Western blotting method, and the ratio was analyzed.
After the cultivation, the respective amounts of FLAGx3-DYRK1A, HAx3-EGFP, and GAPDH were quantitatively analyzed by a Western blotting method, and the ratio was analyzed.

[3] = molecular target: T2, DYRK1A (Rattus norvegicus, UniProt Q63470); assay: Monitoring of DYRK1A activity inhibition using homocysteine in blood as index; format: in vivo; settings: rats, oral, 18 mg/kg, FIG. 7
T2 construct: from tissue; host or cells: living rat (whole animal); blood plasma analysed for homocysteine
Procedure: DYRK1A inhibitor Harmine was orally administered to rats, and the post-administration homocysteine concentration in blood was measured. The specific conditions are as follows, and the results are illustrated in FIG. 7.
After dissolving the DYRK1A inhibitor Harmine in an administration solvent of 0.9% NaCl, about 1 ml per individual was orally administered (final administration concentration: 18 mg/kg). At certain interval after the administration, the blood was collected from caudate veins. From the blood, blood plasma was separated and preserved in the presence of EDTA-2Na. Analysis of the homocysteine concentration in the blood plasma was consigned to SRL. Specifically, the measurement was conducted by extracting fractures including homocysteine from the blood plasma and then analyzing the amount of homocysteine included in the extract by HPLC (see Araki A et al: Journal of Chromatography 422, 43-52 1987, Araki A: Gendai-Iryou 22, 10, 2544-2549 1990).

| Structure (SMILES) | melting point [°C] | amount of intracellular DYRK1A protein [2] | also measured |
| --- | --- | --- | --- |
| Fc1ccc(N2CCN(c3ccccc3)CC2)c(NC(=S)c2ccncc2)c1 [Compound 2, N-[5-fluoro-2-(4-phenyl-1-piperazinyl)phenyl]isonicotinthioamide] | 183 to 186 |  | effect on stability of TAU protein [1]: make TAU protein unstable and allow the protein to decompose; effect on transcription and translation of TAU [1]: not to affect at all; amount of the EGFP-TAU protein within the cells ([1]; Western blot, FIG. 6): reduces only the amount of the EGFP-TAU protein; amount of the internal standard mCherry protein ([1]; Western blot, FIG. 6): does not affect |
| COc1ccc(/C=C2\SC(=S)NC2=O)cc1C#CC1CCCCC1 [Compound 3, (Z)-5-(3-(cyclohexylethynyl)-4-methoxybenzylidene)-2-thioxothiazolidin-4-one] | 185 to 186 | capable of reducing |  |
| COc1ccc(/C=C2\SC(=S)NC2=O)cc1C#CC1C2CC3CC(C2)CC1C3 (stereo not drawn) [Compound 4, (Z)-5-(3-(2-adamantylethynyl)-4-methoxybenzylidene)-2-thioxothiazolidin-4-one] | 266 to 267 | capable of reducing |  |
| COc1ccc(/C=C2\SC(=S)NC2=O)cc1-c1cccc(C)c1 [Compound 5] | 204 to 205 | capable of reducing |  |
| COc1ccc(/C=C2\SC(=S)NC2=O)cc1-c1cc(C(F)(F)F)cc(C(F)(F)F)c1 [Compound 6, (Z)-5-(3,5-bis(trifluoromethyl)phenyl-4-methoxybenzylidene)-2-thioxothiazolidin-4-one] | 244 to 245 |  |  |
| COc1ccc(/C=C2\SC(=S)NC2=O)cc1-c1cccc(C(F)(F)F)c1 [Compound 7, (Z)-5-(3-(trifluoromethyl)phenyl-4-methoxybenzylidene)-2-thioxothiazolidin-4-one] | 209 to 210 |  |  |
| COc1ccc(/C=C2\SC(=S)NC2=O)cc1-c1cc(C)cc(C)c1 [Compound 8, (Z)-5-(3,5-dimethylphenyl-4-methoxybenzylidene)-2-thioxothiazolidin-4-one] | 238 to 239 |  |  |
| COc1ccc2c([nH]c3c(C)nccc32)c1C#C[Si](C)(C)C [Compound 9, 8-[2-(trimethylsilyl)ethynyl]harmine] | 185 to 186 |  | amount of FLAGx3-DYRK1A (FLAG-DYRK1A) protein within the cells [2]: reduces only the amount of the FLAG-DYRK1A protein; amount of the internal standard EGFP protein ([2]; FIGS. 10-11): does not affect |
| COc1ccc2c([nH]c3c(C)nccc32)c1C#CC1CCCCC1 [Compound 10, 8-[2-(cyclohexyl)ethynyl]harmine] | 198 to 199 |  | amount of FLAGx3-DYRK1A (FLAG-DYRK1A) protein within the cells [2]: reduces the FLAGx3-DYRK1A protein |
| COc1ccc2c(c1)[nH]c1c(C)nccc12 [Harmine] |  |  | homocysteine in blood ([3]; after two hours from administration): raised rapidly; homocysteine in blood compared with controls ([3]; for 5 hours): higher numerical values in comparison with controls |
